Our source for the Drug metabolism and Retention_time values is ChEMBL document CHEMBL3351870, “Structure elucidation of phase I metabolites of the microtubule perturbagens: ceratamines A and B” (J Nat Prod, 2014).

The test system of data set [1] is Liver microsome. The data set is described as follows: Drug metabolism in rat liver microsomes incubated with 10 uM ceratamine B for 60 mins assessed as metabolite level in presence of 1 mM NADPH at pH 7.4 and 37 degC by Quadrupole-time-of-flight mass spectrometry. The data set is classed as ADME. Particulars: pH 7.4, 1 h. On the technique in general: Liver microsomes are vesicles of endoplasmic reticulum, rich in cytochrome P450 enzymes.

Data set [2] concerns Liver microsome. Kind of data set: Drug metabolism in rat liver microsomes incubated with 10 uM ceratamine A for 60 mins assessed as metabolite level in presence of 1 mM NADPH at pH 7.4 and 37 degC by Quadrupole-time-of-flight mass spectrometry. The data set is classed as ADME. Particulars: pH 7.4, 1 h.
Data set [3] can be described thus: Retention time by reverse phase HPLC-UV chromatography. The data set is classed as physicochemical.
For data set [4], the system named is Liver microsome. Kind of data set: Drug metabolism in rat liver microsomes incubated with 10 uM ceratamine B for 60 mins assessed as metabolite formation in presence of 1 mM NADPH at pH 7.4 and 37 degC by reverse phase HPLC-UV chromatography. It is filed as ADME. Particulars: pH 7.4, 1 h.
In data set [5] the test system is Liver microsome. The data set is described as follows: Drug metabolism in rat liver microsomes incubated with 10 uM ceratamine A for 60 mins assessed as metabolite formation in presence of 1 mM NADPH at pH 7.4 and 37 degC by reverse phase HPLC-UV chromatography. It is filed as ADME. Conditions: pH 7.4, 1 h.

As for `CNc1nc2cc[nH]c(=O)c(Cc3cc(Br)c(O)c(Br)c3)c-2n1`, the Drug metabolism result in data set [1] and in data set [2] was “metabolite_detected” each time. The compound also gave a Retention_time in data set [3] of 20.1 min.
As for `CNc1nc2cc[nH]c(=O)c(Cc3cc(Br)c(OC)c(Br)c3)c-2n1`, the Drug metabolism entry in data set [4] is “metabolite_detected”.
In the case of `COc1c(Br)cc(Cc2c3nc(N)nc-3cc[nH]c2=O)cc1Br`, the Drug metabolism result in data set [1] and in data set [2] was “metabolite_detected” each time. In data set [3], this compound showed a Retention_time of 29.6 min.
Take `CNc1nc2ccn(C)c(=O)c(Cc3cc(Br)c(OC)c(Br)c3)c-2n1` [CERATAMINE A]: the Drug metabolism result in data set [5] is reported as “metabolite_detected”.
